Experimental data reported in paper PMC9852063 (Molecular carcinogenesis, 2022).

Biological target: T1, Doublecortin like kinase 1 (DCLK1) (Homo sapiens, UniProt O15075)
T1 sequence (O15075 1-740): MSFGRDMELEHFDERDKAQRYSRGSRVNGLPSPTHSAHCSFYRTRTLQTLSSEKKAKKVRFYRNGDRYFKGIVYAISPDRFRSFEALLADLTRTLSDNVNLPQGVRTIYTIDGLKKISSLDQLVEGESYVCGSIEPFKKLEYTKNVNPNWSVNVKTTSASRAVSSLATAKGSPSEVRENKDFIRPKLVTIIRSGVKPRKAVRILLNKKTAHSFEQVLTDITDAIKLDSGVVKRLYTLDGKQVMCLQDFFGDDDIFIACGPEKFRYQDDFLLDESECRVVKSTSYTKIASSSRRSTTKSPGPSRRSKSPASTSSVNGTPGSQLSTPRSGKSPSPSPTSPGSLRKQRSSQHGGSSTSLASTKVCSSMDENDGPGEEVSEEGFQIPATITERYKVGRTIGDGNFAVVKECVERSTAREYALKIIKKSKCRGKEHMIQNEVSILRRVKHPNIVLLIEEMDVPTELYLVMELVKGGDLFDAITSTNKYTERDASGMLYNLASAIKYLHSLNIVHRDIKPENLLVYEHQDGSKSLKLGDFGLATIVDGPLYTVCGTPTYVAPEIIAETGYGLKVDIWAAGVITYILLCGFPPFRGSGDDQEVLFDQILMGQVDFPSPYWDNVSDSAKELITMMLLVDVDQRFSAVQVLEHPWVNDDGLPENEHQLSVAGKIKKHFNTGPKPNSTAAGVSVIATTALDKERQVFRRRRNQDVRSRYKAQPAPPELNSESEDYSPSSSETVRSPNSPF
Test: SPR with immobilized recombinant DCLK1
Format: binding

**Q.** Which Kd does the source give for O=C1C(=Cc2ccc(F)cc2F)CNCC1=Cc1ccc(F)cc1F [DiFiD, 3,5-bis (2,4-difluorobenzylidene)-4-piperidone] here?
**A.** The Kd was 71 nM.
